Laboratory results from patent US6265433A, “LTA4 hydrolase inhibitors” (G. D. Searle & Company, priority 1999, dated 2001).

Assays:
[1] = molecular target: T1, Recombinant Human LTA4 Hydrolase (Homo sapiens, UniProt P09960); assay: Recombinant Human LTA Hydrolase Assay (in vitro LTA hydrolase enzyme assay); type: biochemical; details: 250 ng rhLTA4 hydrolase; 10 minutes preincubation and 10 minutes reaction at room temperature; pH 7.4
T1 construct: made in house; host or cells: Spodoptera frugiperda Sf-9 cells (baculovirus)
T1 sequence (P09960 1-611): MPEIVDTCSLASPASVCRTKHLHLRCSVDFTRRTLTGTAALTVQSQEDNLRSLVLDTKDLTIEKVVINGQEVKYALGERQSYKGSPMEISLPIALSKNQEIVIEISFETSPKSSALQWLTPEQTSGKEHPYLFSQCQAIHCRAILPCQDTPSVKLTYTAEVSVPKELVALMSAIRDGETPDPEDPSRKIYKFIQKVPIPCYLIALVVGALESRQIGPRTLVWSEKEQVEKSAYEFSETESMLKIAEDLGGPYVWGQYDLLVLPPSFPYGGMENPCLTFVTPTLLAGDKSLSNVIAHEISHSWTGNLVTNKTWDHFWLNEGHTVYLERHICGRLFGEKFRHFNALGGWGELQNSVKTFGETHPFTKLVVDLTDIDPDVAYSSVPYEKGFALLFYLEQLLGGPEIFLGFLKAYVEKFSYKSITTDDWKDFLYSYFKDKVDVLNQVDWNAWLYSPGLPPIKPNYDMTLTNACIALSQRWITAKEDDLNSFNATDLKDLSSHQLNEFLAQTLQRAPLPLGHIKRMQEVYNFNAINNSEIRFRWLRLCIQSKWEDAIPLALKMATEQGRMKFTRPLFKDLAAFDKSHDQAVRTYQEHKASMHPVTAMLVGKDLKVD
Method: (§1) One or more of three different assays, (1) an in vitro LTA hydrolase enzyme assay, (2) a human whole blood assay utilizing calcium ionophore stimulation, and (3) a murine ex vivo assay utilizing calcium ionophore stimulation were employed to determine the level of LTA hydrolase inhibitor activity.
Recombinant Human LTA Hydrolase Assay for LTA Hydrolase Inhibitor Activity
Compounds of the present invention were tested for LTA hydrolase inhibitor activity against recombinant human LTA hydrolase (rhLTAH). […] Briefly, LTA hydrolase encoding DNA was amplified by polymerase chain reaction using a pair of oligonucleotide primers based on the nucleotide sequence from the 5'-end, and the complement of the 3'-end, of the coding region of the LTA hydrolase gene, the nucleotide sequence of which gene is known. […] A λgt11 human placental cDNA library (Clonetech, Palo Alto, Calif.) provided the nucleic acid template.
One or more predetermined amounts of a compound of the invention were incubated in assay buffer (0.1 M potassium phosphate, 5 mg/ml fatty acid free BSA, 10% DMSO, Ph 7.4) for 10 minutes at room temperature with 250 ng of recombinant hLTA4 H to allow binding, if any, between the enzyme and inhibitor. The stock enzyme solution was 1 mg/m. LTA4 hydrolase, 50 Mm Tris, Ph 8.0, 150 Mm NaCl, 2.5 Mm beta-mercaptoethanol, 50% glycerol. The specific activity of the enzyme was about 650 Nmoles/min/mg. LTA4 (i.e., substrate) was prepared from the methyl ester of LTA4 (Biomol, Inc., Plymouth Meeting, Pa.) by treating the methyl ester with 30 molar equivalents of LiOH at room temperature for 18 hours. The LTA4 substrate in its free acid form was kept frozen at -80° C. until needed. LTA4 (free acid) was thawed and diluted in assay buffer (minus DMSO) to a concentration of 350 ng/ml and 25 μl (8ng) of LTA4 substrate was added to the reaction mixture (total volume of reaction mixture=200 μl at time zero. Each reaction was carried out at room temperature for 10 minutes. The reaction was stopped by diluting 25 μl of the reaction mixture with 500 μl of the assay buffer without DMSO. […] was quantified in the diluted sample by a commercially available enzyme-linked immunoassay [Caymen Chemical Col. Ann Arbor, Mich.] using the method recommended in the manufacturer's instructions and compared to the amount of […] produced in a negative control (i.e., essentially identical conditions except without addition of an inhibitor compound). The IC50 was routinely calculated from the data produced.

[2] = tested on: LTB4 production in calcium ionophore stimulated mouse blood; assay: Murine ex vivo LTB4 inhibition, calcium ionophore stimulated mouse blood after oral gavage; type: in vivo, mouse (adult male outbred mice); details: 1 h, blood collected 60 minutes after administration, ionophore A23187 20 mcg/ml, read-out: Murine Ex Vivo LTB4 Inhibition, % I LTB4 at 1 hour after administration of 10 mg/kg
Source text: as §1
Ex Vivo LTB4 and Thromboxane Production by Calcium lonophore Stimulated Mouse Blood for […] Inhibitor Activity
Leukotriene A4 hydrolase inhibitor compounds of the present invention were diluted to a predetermined concentration in phosphate buffered saline containing 2% DMSO and 1% Tween 80. The compounds were administered by oral gavage to adult male outbred mice weighing approximately 20-30 gm at a dose of 10 mg/kg body weight. (Compounds given at a dose of 50 mg/kg body weight are designated in following Table by the symbol, *) Sixty (60) minutes after administration of an LTA4 inhibitor compound of the invention, blood was collected (into heparin-containing tubes) from the retroorbital sinus. […] The mixture was incubated for 10 minutes at 37° C. in a humidified incubator. The reaction was terminated by centrifugation (833 g. 10 minutes at 4° C.). Supernatant were analyzed for LTB4 and thromboxane by commercially available enzyme-linked immunoassays [Caymen Chemical Co., Ann Arbor, Mich.] in accordance with the manufacturer's instructions. The percent inhibition was determined by comparison to animals treated identically except that the solution administered by oral gavage was devoid of inhibitor compound.

[3] = tested on: LTB4 production in calcium ionophore stimulated human blood; assay: Inhibition of calcium ionophore-induced LTB4 production in human blood (human whole blood assay); type: cell-based; details: human blood diluted 1:4; 15 minutes preincubation at 37° C.; calcium ionophore 20 mcg/ml, 10 minutes
Source text: as §1
LTB4 and Thromboxane Production by Calcium Ionophore Stimulated Human Blood for LTB4 Hydrolase Inhibitor Activity
One or more concentrations of the leukotriene A4 hydrolase inhibitor compounds being tested were prepared (diluted in DMSO) and 2 μl added and gently mixed with the diluted whole blood. After incubating for 15 minutes at 37° C. in a humidified incubator, calcium ionophore […] (Sigma Chemical Co., St. Louis, Mo.) was added to a final concentration of 20 mcg/ml and the incubation continued under the same conditions for an additional 10 minutes to allow LTB4 formation. The reaction was terminated by centrifugation (833 g, 10 minutes at 4° C.) and supernatant were analyzed for LTB4 and thromboxane by commercially available enzyme-linked immunoassays (Caymen Chemical Co., Ann Arbor, Mich.) according to the manufacturer's instructions. The IC50 of each test compound was determined from the amount of inhibition of LTB4 production as compared to an essentially identical assay in which no inhibitor compound was present.

LTA4 hydrolase = details: background statement; cited from earlier work

Row | SMILES | IC50 [1] [µM] | inhibition at 10 mg/kg [2] [%] | IC50 [3] [µM] | LTA4 hydrolase inhibitory activity (LTA4 hydrolase)
1 | c1cc(Oc2ccc(C3=NCCO3)cc2)ccc1OCCN1CCCC1 [Example 10] | 0.59 | 83 | 0.55 | –
2 | CC(C)C[C@H](NC(=O)[C@@H](O)[C@H](N)Cc1ccccc1)C(=O)O [bestatin] | – | – | – | exhibit LTA4 hydrolase inhibitory activity
3 | c1coc(-c2ccc(Oc3ccc(OCCN4CCCC4)cc3)cc2)n1 [Example 7] | – | 93 | 0.55 | –
4 | CN(CCCOc1ccc(Oc2ccc(-c3ncco3)cc2)cc1)CCC(=O)O [Example 18] | 0.027 | 94 | 0.19 | –
5 | O=C(O)C1CCN(CCOc2ccc(Oc3ccc(-c4ccccc4)cc3)cc2)CC1 [Example 12] | – | 87 | 0.22 | –
6 | CCN(CCCOc1ccc(Oc2ccc(-c3ncco3)cc2)cc1)CCC(=O)O [Example 19] | 0.34 | 93 | 0.24 | –
7 | COC(=O)CCN(C)CCCOc1ccc(Oc2ccc(-c3ccccc3)cc2)cc1 [Example 13] | 0.55 | 63 | 0.79 | –
8 | C[C@H](CS)C(=O)N1CCC[C@H]1C(=O)O [captopril] | – | – | – | exhibit LTA4 hydrolase inhibitory activity
9 | CCOC(=O)C1CCN(CCOc2ccc(Oc3ccc(-c4ccccc4)cc3)cc2)CC1 [Example 11] | 0.34 | 90 | 0.72 | –
10 | CN(CCCOc1ccc(Oc2ccc(-c3ccccc3)cc2)cc1)CCC(=O)O [Example 14] | – | 78 | 0.19 | –
11 | CN(CCCOc1ccc(Oc2ccc(-c3nccs3)cc2)cc1)CCC(=O)O [Example 17] | 0.95 | 87 | 0.072 | –
12 | c1ccc(-c2ccc(Oc3ccc(OCCN4CCCC4)cc3)cc2)cc1 [Example 8] | 0.0066 | 57 | 0.14 | –
